Experimental data reported in PubChem BioAssay (NCI).
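Results reflect a 48-hour exposure of cells in 96-well plates to compound at five concentrations. Definition used: TGI = concentration required for complete inhibition of growth.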

How the values were obtained:
Test in all cases: NCI anticancer screen, dose series, 48 h
786-0 renal = test system: 786-0 renal
A549 NSCLC = test system: A549 NSCLC
ACHN renal = test system: ACHN renal
BT-549 breast = test system: BT-549 breast
CAKI-1 renal = test system: CAKI-1 renal
CCRF-CEM leukemia = test system: CCRF-CEM leukemia
COLO 205 colon = test system: COLO 205 colon
DU-145 prostate = test system: DU-145 prostate
EKVX NSCLC = test system: EKVX NSCLC
HCC-2998 colon = test system: HCC-2998 colon
HCT-116 colon = test system: HCT-116 colon
HCT-15 colon = test system: HCT-15 colon
HL-60(TB) leukemia = test system: HL-60(TB) leukemia
HOP-62 NSCLC = test system: HOP-62 NSCLC
HOP-92 NSCLC = test system: HOP-92 NSCLC
HS 578T breast = test system: HS 578T breast
HT29 colon = test system: HT29 colon
KM12 colon = test system: KM12 colon
LOX IMVI melanoma = test system: LOX IMVI melanoma
M14 melanoma = test system: M14 melanoma
MCF7 breast = test system: MCF7 breast
MDA-MB-231 breast = test system: MDA-MB-231 breast
MDA-MB-435 = test system: MDA-MB-435
MDA-N = test system: MDA-N
MOLT-4 leukemia = test system: MOLT-4 leukemia
NCI-H23 lung = test system: NCI-H23 lung
NCI-H460 lung = test system: NCI-H460 lung
NCI-H522 lung = test system: NCI-H522 lung
NCI/ADR-RES ovarian = test system: NCI/ADR-RES ovarian
OVCAR-3 ovarian = test system: OVCAR-3 ovarian
OVCAR-4 ovarian = test system: OVCAR-4 ovarian
OVCAR-5 ovarian = test system: OVCAR-5 ovarian
OVCAR-8 ovarian = test system: OVCAR-8 ovarian
PC-3 prostate = test system: PC-3 prostate
RPMI-8226 leukemia = test system: RPMI-8226 leukemia
SF-268 CNS = test system: SF-268 CNS
SF-295 CNS = test system: SF-295 CNS
SF-539 CNS = test system: SF-539 CNS
SK-MEL-2 melanoma = test system: SK-MEL-2 melanoma
SK-MEL-28 melanoma = test system: SK-MEL-28 melanoma
SK-MEL-5 melanoma = test system: SK-MEL-5 melanoma
SN12C renal = test system: SN12C renal
SNB-19 CNS = test system: SNB-19 CNS
SNB-75 CNS = test system: SNB-75 CNS
SR leukemia = test system: SR leukemia
SW-620 colon = test system: SW-620 colon
T-47D breast = test system: T-47D breast
TK-10 renal = test system: TK-10 renal
U251 CNS = test system: U251 CNS
UACC-257 melanoma = test system: UACC-257 melanoma
UACC-62 melanoma = test system: UACC-62 melanoma
UO-31 renal = test system: UO-31 renal
A498 renal = test system: A498 renal
IGROV1 ovarian = test system: IGROV1 ovarian
K-562 leukemia = test system: K-562 leukemia
MALME-3M melanoma = test system: MALME-3M melanoma
NCI-H226 lung = test system: NCI-H226 lung
RXF 393 renal = test system: RXF 393 renal
SK-OV-3 ovarian = test system: SK-OV-3 ovarian

With `Cc1ccc(/C=C/C(=O)Oc2ccc(/C=C3\CCC/C(=C\c4ccc(OC(=O)/C=C/c5ccc(C)cc5)cc4)C3=O)cc2)cc1` the TGI (786-0 renal) was 81 µM, the TGI (A549 NSCLC) was over 100 µM and the TGI (ACHN renal) was over 100 µM. For the same compound, the TGI (BT-549 breast) was over 100 µM, the TGI (CAKI-1 renal) was over 100 µM and the TGI (CCRF-CEM leukemia) was over 100 µM. The TGI (COLO 205 colon) was over 100 µM, the TGI (DU-145 prostate) was over 100 µM and the TGI (EKVX NSCLC) was over 100 µM. The TGI (HCC-2998 colon) was over 100 µM, the TGI (HCT-116 colon) was over 100 µM and the TGI (HCT-15 colon) was over 100 µM. For the same compound, the TGI (HL-60(TB) leukemia) was over 100 µM, the TGI (HOP-62 NSCLC) was over 100 µM and the TGI (HOP-92 NSCLC) was over 100 µM. For the same compound, the TGI (HS 578T breast) was over 100 µM, the TGI (HT29 colon) was over 100 µM and the TGI (KM12 colon) was over 100 µM. The TGI (LOX IMVI melanoma) was over 100 µM, the TGI (M14 melanoma) was over 100 µM and the TGI (MCF7 breast) was over 100 µM. It also gave a TGI (MDA-MB-231 breast) of over 100 µM, a TGI (MDA-MB-435) of over 100 µM and a TGI (MDA-N) of over 100 µM. For the same compound, the TGI (MOLT-4 leukemia) was over 100 µM, the TGI (NCI-H23 lung) was over 100 µM and the TGI (NCI-H460 lung) was over 100 µM. It also gave a TGI (NCI-H522 lung) of over 100 µM, a TGI (NCI/ADR-RES ovarian) of over 100 µM and a TGI (OVCAR-3 ovarian) of over 100 µM. For the same compound, the TGI (OVCAR-4 ovarian) was over 100 µM, the TGI (OVCAR-5 ovarian) was over 100 µM and the TGI (OVCAR-8 ovarian) was over 100 µM. It also gave a TGI (PC-3 prostate) of over 100 µM, a TGI (RPMI-8226 leukemia) of over 100 µM and a TGI (SF-268 CNS) of over 100 µM. The TGI (SF-295 CNS) was over 100 µM, the TGI (SF-539 CNS) was over 100 µM and the TGI (SK-MEL-2 melanoma) was over 100 µM. For the same compound, the TGI (SK-MEL-28 melanoma) was over 100 µM, the TGI (SK-MEL-5 melanoma) was over 100 µM and the TGI (SN12C renal) was over 100 µM. It also gave a TGI (SNB-19 CNS) of over 100 µM, a TGI (SNB-75 CNS) of 36.3 µM and a TGI (SR leukemia) of 96.4 µM. It also gave a TGI (SW-620 colon) of over 100 µM, a TGI (T-47D breast) of over 100 µM and a TGI (TK-10 renal) of over 100 µM. For the same compound, the TGI (U251 CNS) was over 100 µM, the TGI (UACC-257 melanoma) was over 100 µM and the TGI (UACC-62 melanoma) was over 100 µM. For the same compound, the TGI (UO-31 renal) was over 100 µM.
`CC(=O)C1=C(C)O[C@@H]2O[C@H](COCc3ccccc3)[C@@H](OCc3ccccc3)[C@H](O)[C@@H]2S1` gave a TGI (786-0 renal) of 60.6 µM, a TGI (A498 renal) of 71 µM and a TGI (A549 NSCLC) of over 100 µM. For the same compound, the TGI (ACHN renal) was 52.5 µM, the TGI (BT-549 breast) was 46.4 µM and the TGI (CAKI-1 renal) was over 100 µM. For the same compound, the TGI (CCRF-CEM leukemia) was 16.8 µM, the TGI (COLO 205 colon) was 54.5 µM and the TGI (DU-145 prostate) was 58.9 µM. It also gave a TGI (EKVX NSCLC) of 82.8 µM, a TGI (HCT-116 colon) of 32 µM and a TGI (HCT-15 colon) of 71.6 µM. It also gave a TGI (HL-60(TB) leukemia) of 39.7 µM, a TGI (HOP-62 NSCLC) of 46.2 µM and a TGI (HOP-92 NSCLC) of 44.2 µM. It also gave a TGI (HS 578T breast) of 39.9 µM, a TGI (HT29 colon) of 43.2 µM and a TGI (IGROV1 ovarian) of 40.9 µM. The TGI (K-562 leukemia) was 50.3 µM, the TGI (KM12 colon) was 38.1 µM and the TGI (LOX IMVI melanoma) was 38.9 µM. It also gave a TGI (M14 melanoma) of 39.8 µM, a TGI (MALME-3M melanoma) of 44.5 µM and a TGI (MDA-MB-231 breast) of 40.1 µM. It also gave a TGI (MDA-MB-435) of 38 µM, a TGI (MDA-N) of 51.7 µM and a TGI (MOLT-4 leukemia) of 33.3 µM. It also gave a TGI (NCI-H226 lung) of 48.6 µM, a TGI (NCI-H23 lung) of 59.9 µM and a TGI (NCI-H460 lung) of 38.9 µM. For the same compound, the TGI (NCI-H522 lung) was 30.9 µM, the TGI (NCI/ADR-RES ovarian) was 51.6 µM and the TGI (OVCAR-3 ovarian) was 29.4 µM. It also gave a TGI (OVCAR-4 ovarian) of 73.7 µM, a TGI (OVCAR-5 ovarian) of 84.1 µM and a TGI (OVCAR-8 ovarian) of 55.3 µM. For the same compound, the TGI (PC-3 prostate) was 77.3 µM, the TGI (RPMI-8226 leukemia) was 42.6 µM and the TGI (RXF 393 renal) was 47.7 µM. It also gave a TGI (SF-268 CNS) of 32 µM, a TGI (SF-295 CNS) of 31.3 µM and a TGI (SF-539 CNS) of 42.2 µM. The TGI (SK-MEL-2 melanoma) was 39.1 µM, the TGI (SK-MEL-28 melanoma) was 64 µM and the TGI (SK-MEL-5 melanoma) was 32.2 µM. The TGI (SK-OV-3 ovarian) was 87.6 µM, the TGI (SN12C renal) was 37.6 µM and the TGI (SNB-19 CNS) was over 100 µM. The TGI (SNB-75 CNS) was 77.1 µM, the TGI (SR leukemia) was 46.1 µM and the TGI (SW-620 colon) was 75.5 µM. The TGI (T-47D breast) was 21.5 µM, the TGI (TK-10 renal) was 51.3 µM and the TGI (U251 CNS) was 38.5 µM. The TGI (UACC-257 melanoma) was 39.7 µM, the TGI (UACC-62 melanoma) was 31.8 µM and the TGI (UO-31 renal) was 37.7 µM.
